Legend:
[1] = target: PFKFB4 (Homo sapiens, UniProt Q16877); assay: ADP-Glo kinase activity assay, PFKFB4; assay type: biochemical
Experimental: The kinase activity of the bi-functional enzyme was quantified based on the production of ADP and F-2,6-P2 from ATP by ADP-GloTM Kinase Assay (Promega). The assay was performed in two steps; first, after the kinase reaction, an equal volume of ADP-GloTM Reagent was added to terminate the kinase reaction and deplete the remaining ATP. Second, the Kinase Detection Reagent was added to simultaneously convert ADP to ATP and allow the newly synthesized ATP to be measured using a luciferase/luciferin reaction. The light generated was measured using a luminescence counter (1450 MicroBeta TriLux). The assay was performed in white 384-well plates (OptiPlate, 6007299, PerkinElmer) by consecutive additions of a test compound solution (0.1 µL, serial diluted in DMSO from compound DMSO stock solution and dispensed by acoustic dispensing from UV-star 384-well plate 7360153, VWR), enzyme solution (5 µL) and substrate (fructose-6-phosphate (F6P) and adenosine-5′-triphosphate (ATP)) containing solution (5 µL). […] Four reference dose–response curves, one of them being the QC compound, were included and serial diluted as the test compounds. […] The inhibitory potency or IC50 values of test compounds on the kinase activity of the enzymes were calculated using a four-parameter model (model 205) in XLfit (IDBS ActivityBase XE Runner).

[2] = target: PFKFB3 (Homo sapiens, UniProt Q16875); assay: Isothermal titration calorimetry; assay type: binding; conditions: 25 °C
Experimental: ITC was performed for the titration of 200 μM KAN0438241 into 20 μM PFKFB3 protein. Raw ITC data was recorded for 12 × 3 μl injections (preceded by 0.4 μl injection). Data was collected with PEAQ-ITC system (MicroCal™, Malvern Instruments) at 25 °C, 10 μcal/s Reference Power, High Feedback, and 750 rpm stirring rate. A constant value of the heat of dilution was fitted along with the binding parameters. Data analysis performed with dedicated PEAQ-ITC analysis software (MicroCal, Malvern Instruments).

[3] = target: T1, BRAF (Homo sapiens, UniProt P15056); assay: KINOMEscan; assay type: binding; conditions: 2000 nM; read-out: Percent Control
T1 construct: purchased DiscoverX (Eurofins) KINOMEscan / scanEDGE, inferred from the naming style

[4] = system: U2OS DR-GFP cells; assay: DR-GFP (HR) assay; assay type: cell-based; conditions: DMSO = 100% activity
Experimental: 5 × 10^4 U2OS (DR-GFP) cells were seeded into 12-well plates, 24 h later cells were treated with the indicated siRNAs or inhibitors and, 24 h later, transfected with 150 ng of an I-SceI vector using JetPEI or JetPRIME (Polyplus transfections). The next day, the medium was changed; 24 h after this, cells were harvested by trypsinization and washed with PBS, and the GFP signal was measured by flow cytometry on a FACS Navios (as described above). The frequency of repair in cells treated with inhibitors or transfected with the various siRNAs was calculated relative to cells treated with DMSO or transfected with control siRNA.

[5] = system: BJ RAS cells; assay: Clonogenic survival, BJ RAS; assay type: cell-based; conditions: with and without IR (2 Gy)
Experimental: U2OS cells were transfected with indicated siRNAs and 24 h later exposed to IR (2 Gy) or left untreated and allowed to recover for 4 h. One-hundred U2OS cells were then seeded into 6-well plates and after 10 days colonies were fixed and stained with 4% methylene blue (Sigma Aldrich) in methanol. BJ TERT (500 cells), BJ RAS (200 cells), or U2OS (200 cells) were seeded into 6-well plates 24 h prior to treatment with inhibitors as indicated or vehicle for 24 h and then subjected to IR (2 Gy). The inhibitors were washed out 72 h later and colonies were fixed 4 days (BJ RAS) or 7 days (BJ TERT) later with 4% methylene blue in methanol.

[6] = system: U2OS cells; assay: DDR signaling, western blot / RPA32 intensity; assay type: cell-based
Experimental: Cells were lysed on ice using the NP-40 lysis buffer (50 mM Tris–HCl pH 8.0, 150 mM NaCl, 1% NP-40) supplemented with protease and phosphatase inhibitors (Roche). Protein lysates were quantified using the Pierce BCA Protein Assay Kit (ThermoFisher Scientific), equal amounts of protein were heated to 70 °C in NuPAGE LDS Sample Buffer (ThermoFisher Scientific) and loaded on Mini-PROTEAN® precast gels (Bio-Rad) and run at 120 V. Transfer to nitrocellulose membrane (Bio-Rad) was done using Trans-Blot Turbo Transfer System (Bio-Rad). Membranes were blocked for 1 h at RT in blocking buffer (5% BSA, 0.1% Tween-20 in PBS, or 1:1 Li-Cor Blocking Buffer/TBS + 0.05% Tween-20 (TBS-T)), incubated with primary antibodies overnight at 4 °C and then incubated 1 h at RT with secondary antibodies diluted at 1:10,000 in 1:1 Li-Cor blocking buffer/TBS-T. Bands were visualized with an Odyssey Fc Imager and analyzed with ImageJ or with Image Studio Software (Li-Cor Biosciences). Uncropped western blots are shown in Supplementary Figure 10, 11, 12, 13, 14, 15, 16.

PFKFB4, sequence (Q16877 whole entry, species assumed): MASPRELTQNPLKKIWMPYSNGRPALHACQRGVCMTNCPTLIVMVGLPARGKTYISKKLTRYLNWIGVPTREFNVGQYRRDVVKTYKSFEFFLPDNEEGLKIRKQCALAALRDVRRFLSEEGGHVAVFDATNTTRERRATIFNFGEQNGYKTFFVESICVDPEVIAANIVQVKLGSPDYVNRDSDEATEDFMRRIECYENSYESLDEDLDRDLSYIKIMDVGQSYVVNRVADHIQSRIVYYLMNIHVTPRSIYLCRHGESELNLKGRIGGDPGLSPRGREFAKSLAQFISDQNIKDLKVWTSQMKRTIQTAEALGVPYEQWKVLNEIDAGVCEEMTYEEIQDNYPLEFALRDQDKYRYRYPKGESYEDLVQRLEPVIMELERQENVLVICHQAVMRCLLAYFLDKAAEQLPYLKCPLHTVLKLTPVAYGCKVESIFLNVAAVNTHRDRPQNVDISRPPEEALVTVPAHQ
T1 sequence (P15056 whole entry): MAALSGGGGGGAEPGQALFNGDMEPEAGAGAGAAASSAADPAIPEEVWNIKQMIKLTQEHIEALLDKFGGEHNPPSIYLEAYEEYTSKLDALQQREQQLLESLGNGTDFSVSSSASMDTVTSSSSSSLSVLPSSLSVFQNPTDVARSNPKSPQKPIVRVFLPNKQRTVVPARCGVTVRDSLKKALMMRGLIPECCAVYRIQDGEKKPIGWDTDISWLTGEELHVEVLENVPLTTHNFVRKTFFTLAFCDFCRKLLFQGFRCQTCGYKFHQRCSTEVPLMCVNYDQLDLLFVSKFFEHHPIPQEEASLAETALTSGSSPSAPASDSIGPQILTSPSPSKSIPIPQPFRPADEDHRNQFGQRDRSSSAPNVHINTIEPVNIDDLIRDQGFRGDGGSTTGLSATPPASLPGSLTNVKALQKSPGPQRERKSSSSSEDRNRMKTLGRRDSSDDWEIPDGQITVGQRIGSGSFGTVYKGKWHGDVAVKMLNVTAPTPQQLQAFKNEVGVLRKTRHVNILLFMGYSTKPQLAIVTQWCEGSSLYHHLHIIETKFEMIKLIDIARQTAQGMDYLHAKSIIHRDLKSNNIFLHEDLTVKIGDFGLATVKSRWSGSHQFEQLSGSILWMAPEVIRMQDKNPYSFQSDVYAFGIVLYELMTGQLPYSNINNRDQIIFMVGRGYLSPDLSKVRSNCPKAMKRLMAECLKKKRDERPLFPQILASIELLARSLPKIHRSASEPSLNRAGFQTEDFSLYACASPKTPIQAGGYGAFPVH
PFKFB3, sequence (Q16875 whole entry): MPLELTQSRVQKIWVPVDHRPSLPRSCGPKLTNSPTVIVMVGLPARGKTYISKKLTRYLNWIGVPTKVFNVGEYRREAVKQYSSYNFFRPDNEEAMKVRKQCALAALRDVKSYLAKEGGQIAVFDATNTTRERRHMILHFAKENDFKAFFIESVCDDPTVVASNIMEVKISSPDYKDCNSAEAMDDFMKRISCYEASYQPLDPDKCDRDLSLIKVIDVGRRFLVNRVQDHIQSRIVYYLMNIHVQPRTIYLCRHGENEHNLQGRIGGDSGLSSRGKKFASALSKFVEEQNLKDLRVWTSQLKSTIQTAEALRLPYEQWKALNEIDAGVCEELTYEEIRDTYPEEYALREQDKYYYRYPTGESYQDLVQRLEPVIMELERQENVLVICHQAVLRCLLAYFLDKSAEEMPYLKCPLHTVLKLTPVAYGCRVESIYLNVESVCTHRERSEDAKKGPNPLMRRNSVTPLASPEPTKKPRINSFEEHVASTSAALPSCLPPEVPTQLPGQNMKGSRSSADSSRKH

Structure (SMILES)	IC50 ([1]; ADP-GLO assay) [µM]	selectivity window PFKFB3 versus PFKFB4 ([1]; ratio of IC50 values)	potency for PFKFB3 by isothermal titration calorimetry (in words) [2]	remaining binding at 2 µM [3] [%]	HR activity as compared to vehicle-treated cells [4] [%]	clonogenic survival of BJ RAS (in words) [5]	IR-induced phosphorylation of ATM, H2AX, or KAP-1 (in words) ([6]; 10 μM 24 h)	induction of RPA-coated ssDNA, p53, phosphorylation of ATR, ATM, Chk1, H2AX (in words) ([6]; no IR)
O=C(O)c1ccc(NS(=O)(=O)c2cccc(-c3cc(F)ccc3O)c2)cc1O [KAN0438241, 4-{[(5′-Fluoro-2′-hydroxybiphenyl-3-yl)sulfonyl]amino}-2-hydroxybenzoic acid]	3.6	about 20 fold	sub-µM potency	100	–	–	–	–
O=C(OCCO)c1ccc(NS(=O)(=O)c2cccc(-c3cc(F)ccc3O)c2)cc1O [KAN0438757, 2-Hydroxyethyl-4-{[(5′-fluoro-2′-hydroxybiphenyl-3-yl)sulfonyl]amino}-2-hydroxybenzoate]	–	–	–	–	10	decreased clonogenic survival	did not affect	did not induce

— article PMC6155239, “Targeting PFKFB3 radiosensitizes cancer cells and suppresses homologous recombination” (Nature Communications, 2018)
